According to patent US20170247409A1, “ABIETANE-TYPE DITERPENOIDS” (UNIVERSITY OF HELSINKI, priority 2014, published 2017):
≈ marks a conversion by molar mass, not a printed value. Like-named read-outs stand apart in the source and are kept apart here.

Tests used:
[1] = tested on: S. aureus ATCC 25923 biofilms; experiment: Viable plate counts and Log Reduction of S. aureus ATCC 25923 biofilms; assay type: cell-based, Staphylococcus aureus; conditions: 400 μM, viable plate counts
Procedure: The viability of S. aureus (ATCC 25923) biofilms left upon exposure to compounds 20, 21, 22 and 25 was determined using viable plate counts and calculating the Log Reduction (Log R) value. This procedure involves scrapping the biofilms off the substrate, disaggregating them by sonication and plating the resulting suspension in agar. The method is highly laborious but it is the gold standard for the quantification of anti-biofilm efficacy (Pitts et al. 2003). […] Of note, a log R value of 2 represents a reduction of 99% of the viable cells in the biofilms, and typically, a log R of 3 is considered a relevant indicator of the compound efficacy as an anti-biofilm agent.

HL cells [2] = experiment: Tolerability of mammalian cells, resazurin viability assay; assay type: cell-based, human; conditions: 24 hours exposure, HL cells
Procedure: Viability values were measured in acute conditions (24 hours exposure) using the resazurin assay as in Karlsson et al, 2012 (Eur J Pharm Sci. 2012 Aug 30;47(1):190-205). […] The least tolerated molecule was 25, as only 23% (±5.9) of cells remained viable upon exposure to 100 μM. However, concentrations up to 30 μM caused no cytotoxicity (90.2% of viable cells, ±0.5).

[3] = tested on: S. aureus ATCC 25923 biofilms; experiment: Membrane depolarization in biofilms, DiBAC4(3) probe; assay type: cell-based, Staphylococcus aureus; conditions: 1 h exposure to the biofilms (FIG. 2B)
Source text: (§1) A: quantification of ATP release from the S. aureus ATCC 25923 biofilms using the BacTiter-Glo bioluminescent assay. B: quantification of membrane depolarization in treated biofilms by the potential-sensitive DiABC(4)3 probe; this probe can only enter depolarized cells, where it experienced an enhanced fluorescence signal upon binding to intracellular proteins. For statistical comparisons between the treated and untreated samples, an unpaired t-test with Welch's correction was used, using GraphPad Prism (v 5.0 for Mac OS X).
(§2) ATP release from the biofilms after 1 h exposure to compounds 22 and 25 at 100 μM was quantified on the culture media, using the BacTiter-Glo bioluminescent assay. […] ATP release can be often associated to membrane depolarization events. Here, such events were followed by the increase in fluorescence emission of the DiBAC4(3) probe, as in Okuda et al. (2013).

E. coli XL1 blue = experiment: Anti-biofilm activity against E. coli XL1 blue biofilms; assay type: cell-based, Escherichia coli; conditions: tested at IC50 conc. measured against S. aureus ATCC 25923
Procedure: (§3) Four of the compounds were also tested against gram-negative E. coli biofilms as well as other Staphylococcal strains, at the corresponding IC50 values measured against S. aureus ATCC 25923 (Table 4). […] Nonetheless, all the compounds presented below were found active against S. epidermidis (ATCC 12228 and ATCC 35984) strains (Table 3).

single-cell bacteria = experiment: Antibacterial activity (MIC) against single-cell (planktonic) bacteria; assay type: cell-based; conditions: Staphylococcus aureus, in the absence of biofilms, strain not stated
Source text: We selected six of the active compounds in the post-exposure assays namely, compounds 20, 21, 22, 25, 31 and 32 for the follow-up studies. […] In this mode of the assay, the interaction of the compounds occurs initially with single-cell bacteria (that is, a planktonic solution) before biofilms are formed. Therefore, we tested additionally if the compounds could exert antibacterial activity against single-cell bacteria, in the absence of biofilms. Based solely on conventional MIC and MBC values, antibacterial activities against single-cell bacteria were also high for the derivatives. […] The antibacterial activity order 22>21>25>31>20>32 correlated very well with the measured activity in preventing biofilm formation.

[4] = tested on: S. aureus ATCC 25923 biofilms; experiment: Anti-biofilm viability assay with redox dye, pre- and post-exposure, S. aureus ATCC 25923 biofilms; assay type: cell-based, Staphylococcus aureus; conditions: for IC50 / inhibition at 400 µM: S. aureus ATCC 25923; for inhibition at 400 µM: ATCC25923; for reduction of the viable biofilm cells: time-course on existing biofilms, within the first hour (FIG. 1)
[5] = tested on: S. epidermidis ATCC 35984; experiment: Anti-biofilm activity against S. epidermidis ATCC 35984; assay type: cell-based, Staphylococcus epidermidis; conditions: tested at IC50 conc. measured against S. aureus ATCC 25923
Procedure: as §3

[6] = tested on: S. epidermidis ATCC 12228; experiment: Anti-biofilm activity against S. epidermidis ATCC 12228; assay type: cell-based, Staphylococcus epidermidis; conditions: tested at IC50 conc. measured against S. aureus ATCC 25923
Procedure: as §3

S. aureus Newman = experiment: Anti-biofilm potency against S. aureus Newman biofilms; assay type: cell-based, Staphylococcus aureus; conditions: Staphylococcus aureus, S. aureus Newman
Source text: In fact, only 2-3 fold-higher concentrations of the compounds were needed to kill existing biofilms, in comparison to inhibiting bacterial colonization. […] Anti-biofilm potencies were all in the micromolar range and they were particularly significant for compound 22. […] The activity was also confirmed against S. aureus Newman strain. Potency values calculated for the S. aureus Newman (Table 3) were very similar to the values registered for S. aureus ATCC 25923.

[7] = tested on: S. aureus ATCC 25923 biofilms; experiment: ATP release from biofilms, BacTiter-Glo bioluminescent assay; assay type: cell-based, Staphylococcus aureus; conditions: 100 μM; 1 h exposure (FIG. 2A)
Source text: as §1, §2

HL cells [8] = experiment: Biocompatibility index (LC50 in HL cells / concentration causing 3-log reduction of planktonic bacteria); assay type: cell-based, human; conditions: ratio LC50 (HL cells) / concentration causing 3-log reduction in planktonic bacterial burden
Procedure: Additionally, the biocompatibility index (BI) was calculated for compound 22, to assess the overall impact of its antimicrobial activity, using an adaptation of the equation described for antiseptics by Muller and Kramer, 2008. BI, as originally defined by these authors, is a dimensionless parameter resulting from the ratio of the in vitro cytotoxicity values (in this case, half-lethal concentrations, LC50) to the concentration of the compound causing a 3-log reduction in the viable counts of suspended bacteria. Compounds with BI<1 are deemed as less promising, due to their potential toxic effects. Thus BI is a very useful tool for the quick exclusion of undesired toxic scaffolds or weak hits in early stage of development of anti-biofilm molecules. For the determination of the BI, acute cytotoxicity of compound 22 was measured in the same cell line described earlier (HL cells), using the resazurin assay as in Karlsson et al, 2012. The ratio of the half lethal concentration (LC50) and the concentration causing 3-log reduction in the planktonic bacterial burden was calculated (both expressed in […]), as below:
The BI value of compound 22 was clearly higher than 1, which is indicative of an adequate combination of an effective anti-biofilm activity with a low cytotoxicity. It is thus expected that toxic effects can be minimized in the host organisms exposed to compound 22.

[9] = Staphylococcus aureus, ATCC25923, 50% inhibition of biofilm viability, read-out: Potency, IC50 Prior-to-biofilm formation
[10] = Staphylococcus aureus, ATCC25923, 50% inhibition of biofilm viability, value in parentheses, read-out: Potency, IC50 Prior-to-biofilm formation
[11] = Staphylococcus aureus, ATCC25923, 24 h, measured 24 hours after adding to existing biofilms, value in parentheses, read-out: Potency, IC50 Post-biofilm formation
[12] = Staphylococcus aureus, post-exposure, read-out: % Inhibition 400 μM POST
[13] = Staphylococcus aureus, pre-exposure, read-out: % Inhibition 400 μM PRE
[14] = read-out: Potency, IC50 Post-biofilm formation
[15] = read-out: Potency, IC50 Prior-to-biofilm formation
[16] = value in parentheses, read-out: Potency, IC50 Post-biofilm formation
[17] = value in parentheses, read-out: Potency, IC50 Prior-to-biofilm formation

Compound | Log Reduction (average ±SD) [1] | membrane depolarization [3] | Inhibition percentage (±SD) Post-biofilm formation (E. coli XL1 blue) | Inhibition percentage (±SD) Prior-to-biofilm formation (E. coli XL1 blue) | MIC (single-cell bacteria) [µg/mL] | IC50 [4, 9] [µM] | IC50 [4, 10] [µg/mL] | IC50 [4, 11] [µg/mL] | inhibition at 400 µM [4, 12] [%] | inhibition at 400 µM [4, 13] [%] | reduction of the viable biofilm cells [4] [%] | Inhibition percentage (±SD) Post-biofilm formation [5] | Inhibition percentage (±SD) Prior-to-biofilm formation [5] | Inhibition percentage (±SD) Post-biofilm formation [6] | Inhibition percentage (±SD) Prior-to-biofilm formation [6] | IC50 (S. aureus Newman; [14]) [µM] | IC50 (S. aureus Newman; [15]) [µM] | IC50 (S. aureus Newman; [16]) [µg/mL] | IC50 (S. aureus Newman; [17]) [µg/mL] | ATP release from the biofilms [7] | also measured
CC(C)c1ccc2c(c1)CC[C@H]1[C@](C)(C(=O)N[C@H](Cc3c[nH]c4ccccc34)C(=O)O)CCC[C@]21C [Compound 25, N-(Abiet-8,11,13-trien-18-oyl) D-tryptophan] | 6.2 (±0.4) | caused membrane depolarization | 6.7 (±7.2) % | 8.7 (±5.6) % | 29.3 (≈ 60.2 µM) | 33.2 | 16.2 | 41.9 | 102 | 102 | ~50 | 38.0 (±9.3) % | 66.9 (±0.9) % | 48.8 (±10.3) % | 70.3 (±5.6) % | 71.7 | 20.9 | 34.9 | 10.2 | highly significant ATP leakage | viable cells (HL cells [2]; 100 μM): 23%; viable cells (HL cells [2]; concentrations up to 30 μM): 90.2%; IC50 ([4]; Staphylococcus aureus, ATCC25923, 24 h, measured 24 hours after adding to existing biofilms, read-out: Potency, IC50 Post-biofilm formation): < 100 µM; IC50 ([4]; measured 24 hours after adding to existing biofilms, read-out: Potency, IC50 Post-biofilm formation): 86.1 µM
CC(C)c1ccc2c(c1)CC[C@H]1[C@](C)(C(=O)N[C@@H](CC3CCCCC3)C(=O)O)CCC[C@]21C [Compound 22, N-(Abiet-8,11,13-trien-18-oyl) Cyclohexyl-L-alanine] | 2.3 (±0.1) | caused membrane depolarization | 14.2 (±13.1) % | 5.2 (±11.3) % | 6.8 (≈ 15 µM) | 9.4 | 4.2 | 12.7 | 99.6 | 100 | ~50 | 1.9 (±5.7) % | 48.8 (±4.8) % | 4.4 (±5.8) % | 42.3 (±9.5) % | 48.2 | 7.9 | 21.9 | 3.6 | highly significant ATP leakage | biocompatibility index (BI) (HL cells [8]): higher than 1
